Laboratory results taken from BindingDB's records for doi:10.1021/jm058033i (University of Regensburg, 2006).

What was measured:
[1] = Inhibition of DNA synthesis in IL3 dependent FDC-P1 cells expressing wild-type KIT
[2] = Inhibition of DNA synthesis in IL3 dependent FDC-P1 cells expressing KIT V558D mutant
[3] = Antiproliferative activity against mouse 32Dcl3 cell line expressing wild-type FLT3
[4] = Antiproliferative activity against mouse 32Dcl3 cell line expressing FLT3-ITD

IC50 [1] [nM]	IC50 [2] [nM]	IC50 [3] [nM]	IC50 [4] [nM]	SMILES
500	500	–	–	Cc1cccc2[nH]c(C(=O)c3cc4cc(O)ccc4[nH]3)cc12 [(5-Hydroxy-1H-indol-2-yl)-(4-methyl-1H-indol-2-yl)-methanone]
500	500	100	100	O=C(c1cc2cc(O)ccc2[nH]1)c1cc2cc(O)ccc2[nH]1 [Bis-(5-hydroxy-1H-indol-2-yl)-methanone]
